A value given as a limit tells only on which side of the number the result lay.

The term melting point denotes the temperature of the solid-liquid transition.

Data set [1] has as its system MPTP-treated common marmoset. In words: Effect in Parkinson's disease model (MPTP-treated common marmoset), motor disability score. Format: in vivo. The settings on record: oral administration, 10 mg/kg; MPTP-treated common marmosets; scored at 30 minute intervals for 8 hours. The source says:
Parkinson's disease is a disorder based on the degeneration and lack of dopaminergic neurons in the nigro-striatal pathway. In the primates, treatment with a dopamine neurotoxin, that is MPTP, causes selective degeneration and lack of the dopaminergic neurons in the nigro-striatal pathway and causes a symptom such as akinesia and muscular rigidity. The MPTP-treated primate is known as a Parkinson's disease model (Proceedings of the National Academy of Science USA, Vol. 80, p. 4546, 1983). Also, common marmoset belongs to Anthropoidea, and is known to have parkinsonism caused by MPTP like others of Anthropoidea (Neuroscience Letter, Vol. 57, p. 37, 1985).
The experiment was carried out using four male and female common marmosets of 2 or 3 years old (body weight, 300 to 375 g, by Nippon Clea) per group. […] The motor disability of the animals before the administration of the test compound was scored, and this was compared with the motor disability score after orally administration of the test compound (Compound 1) in a dose of 10 mg/kg. As, the parkinsonian symptoms, the motor disabilities were scored at intervals of 30 minutes for 8 hours, by observation through a one-way viewing window. The spontaneous locomotor activity was measured at intervals of 30 minutes for 12 hours by a computer-controlled automatic measuring apparatus. […]

Data set [2] addresses T1, Rat Adenosine A2A Receptor (Rattus norvegicus, UniProt P30543).
T1 construct: tissue Nippon SLC (animals); host or cells: rat (SD) corpus striatum membrane homogenate
In words: Adenosine A2A receptor binding test (3H-CGS21680 binding, rat corpus striatum). The following applies: test compound 10^−7 mol/L, 25° C., 120 minutes, read-out: Rat Adenosine A2A Receptor Binding Inhibition rate (%) (10^−7 mol/L). The procedure: This test was carried but in a similar manner to a Bruns et al's method (Molecular Pharmacology, Vol. 29, p. 331, 1986).
Corpus striatum of rats (SD rat, by Nippon SLC) was suspended in 50 mL of an ice-cooled 50 mmol/L tris(hydroxymethyl)aminomethane hydrochloride (Tris-HCl) buffer (pH 7.7) using a polytron homogenizer (by Kinematica). The resulting homogenate was centrifuged (48,000×g, 20 minutes), and the resulting precipitate was again suspended by adding the same amount of a 50 mmol/L Tris-HCl buffer, followed by centrifugation under the same condition. The resulting final precipitate was suspended by adding a 50 mmol/L Tris-HCl buffer [containing 10 mmol/L magnesium chloride, adenosine deaminase 0.02 units/mg tissue (by Sigma)] so that the tissue concentration was 5 mg (wet weight)/mL.
To 100 μL of the above purified tissue suspension, were added 80 μL (final concentration […]) of tritium-labeled CGS-21680 {^3H-2-[p-(2-carboxyethyl)phenethylamino]-5′-(N-ethylcarboxamido)-adenosine: 40 curies/mmol; by New England Nuclear [The Journal of Pharmacology and Experimental Therapeutics, Vol. 251, p. 888, 1989]} and 20 μL of a test compound solution (10^−7 mol/L; a solution of a test compound in DMSO was diluted with Tris-HCl buffer). The resulting mixture was allowed to stand at 25° C. for 120 minutes, followed by rapid suction filtration through a glass fiber paper filter (GF/C; by Whatman). The filter was immediately washed three times with 200 μL of an ice-cooled 50 mmol/L Tris-HCl buffer. The glass fiber paper filter was transferred into a vial, Microscinti (by Perkin Elmer) was added thereto, and the radioactivity level was measured with Topcount (by Perkin Elmer).
The inhibition rate of the test compound to the adenosine A2A receptor binding (^3H-CGS21680 binding) was calculated according to the following formula.
Amount of total binding means the ^3H-CGS21680 binding radioactivity content in the absence of the test compound. Amount of non-specific binding means the ^3H-CGS21680 binding radioactivity content in the presence of 100 μmol/L cyclopentyladenosine (CPA; by Sigma). Amount of binding in the presence of test compound means the ^3H-CGS21680 binding radioactivity content in the presence of 10^−7 mol/L of the test compound.

T1 sequence (P30543 whole entry): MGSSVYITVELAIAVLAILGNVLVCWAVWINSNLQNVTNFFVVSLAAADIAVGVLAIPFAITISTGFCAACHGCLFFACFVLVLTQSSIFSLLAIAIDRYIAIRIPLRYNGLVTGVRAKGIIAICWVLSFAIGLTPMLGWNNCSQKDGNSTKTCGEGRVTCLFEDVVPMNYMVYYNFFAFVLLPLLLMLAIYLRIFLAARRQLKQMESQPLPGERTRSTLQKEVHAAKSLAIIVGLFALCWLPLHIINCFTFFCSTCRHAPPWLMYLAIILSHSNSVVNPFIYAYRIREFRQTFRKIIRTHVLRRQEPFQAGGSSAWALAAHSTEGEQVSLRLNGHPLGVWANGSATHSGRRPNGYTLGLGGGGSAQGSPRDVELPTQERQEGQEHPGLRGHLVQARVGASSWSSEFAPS

`O=C(Nc1nc(-c2ccco2)c(-c2ccncc2)s1)c1ccncc1` [Compound 1, N-[4-(2-Furyl)-5-(4-pyridyl)thiazol-2-yl]pyridine-4-carboxamide]: the “remission of the parkinsonian symptoms (motor disability score before vs after administration)” value in data set [1] is listed as “effective for remission of the parkinsonian symptoms”. In addition, in data set [2], the inhibition at 0.1 µM was found to be 90%. Compound `CC(C)n1nc(-c2sc(NC(=O)c3ccncc3)nc2-c2ccco2)ccc1=O` [Compound 131, N-[4-(2-Furyl)-5-(1-isopropyl-6-oxo-1,6-dihydropyridazin-3-yl)thiazol-2-yl]pyridine-4-carboxamide] yielded a melting point of 190 to 194 °C. The inhibition at 0.1 µM in data set [2] came to 99%. In the case of `O=C(Nc1nc(-c2ccco2)c(C(=O)c2ccccc2)s1)c1ccc(=O)[nH]c1` [Compound 149, N-[5-Benzoyl-4-(2-furyl)thiazol-2-yl]-2-oxo-1,2-dihydropyridine-5-carboxamide], the melting point was greater than 300 °C. Also, the inhibition at 0.1 µM in data set [2] was 91%.

`O=C(Nc1nc(-c2ccco2)c(C(=O)c2ccccn2)s1)c1ccncc1` [Compound 187, N-[4-(2-Furyl)-5-(pyridin-2-ylcarbonyl)thiazol-2-yl]pyridine-4-carboxamide] yielded a melting point of 218 to 227 °C. The inhibition at 0.1 µM in data set [2] amounted to 86%. In the same order, the values of `O=C(c1ccccn1)c1sc(NC(=O)C2CC2)nc1-c1ccco1` [Compound 191, N-[4-(2-Furyl)-5-(pyridin-2-ylcarbonyl)thiazol-2-yl]cyclopropanecarboxamide] are 191 to 192 °C and 98%. Taken in the same sequence, the figures for `N#Cc1ccc(C(=O)Nc2nc(-c3ccco3)c(C(=O)c3ccccn3)s2)cc1` [Compound 206, 4-Cyano-N-[4-(2-furyl)-5-(pyridin-2-ylcarbonyl)thiazol-2-yl]benzamide] were 232 to 235 °C and 95%.

`O=C(Nc1nc(-c2ccco2)c(C(=O)c2ccccn2)s1)c1ccco1` [Compound 234, N-[4-(2-Furyl)-5-(pyridin-2-ylcarbonyl)thiazol-2-yl]furan-2-carboxamide]: the melting point lay within 184 to 185 °C. In addition, the inhibition at 0.1 µM in data set [2] stood at 100%. `O=C(Nc1nc(-c2ccco2)c(C(=O)c2nccs2)s1)c1ccncc1` [Compound 348, N-[4-(2-Furyl)-5-(thiazol-2-ylcarbonyl)thiazol-2-yl]pyridine-4-carboxamide] yielded a melting point of 228 to 240 °C. For the same compound, the inhibition at 0.1 µM in data set [2] worked out at 100%. In the same order, the values of `O=C(Nc1nc(-c2ccco2)c(C(=O)C2CCOCC2)s1)c1ccncc1` [Compound 455, N-[4-(2-Furyl)-5-(tetrahydropyran-4-ylcarbonyl)thiazol-2-yl]pyridine-4-carboxamide] are 202 to 209 °C and 100%. For the compound `O=C(Nc1nc(-c2ccco2)c(C(=O)C2CCOCC2)s1)C1CC1` [Compound 456, N-[4-(2-Furyl)-5-(tetrahydropyran-4-ylcarbonyl)thiazol-2-yl]cyclopropanecarboxamide], the melting point was in the range of 182 to 183 °C. Moreover, in data set [2], the inhibition at 0.1 µM turned out to be 94%. Taken in the same sequence, the figures for `COc1cccc(C(=O)Nc2nc(-c3ccco3)c(C(=O)C3CCOCC3)s2)c1` [Compound 462, N-[4-(2-Furyl)-5-(tetrahydropyran-4-ylcarbonyl)thiazol-2-yl]-3-methoxybenzamide] were 198 to 200 °C and 99%. Taken in the same sequence, the figures for `O=C(Nc1nc(-c2ccco2)c(C(=O)C2CCOCC2)s1)c1ccc(F)cc1` [Compound 468, 4-Fluoro-N-[4-(2-furyl)-5-(tetrahydropyran-4-ylcarbonyl)thiazol-2-yl]benzamide] were 131 to 132 °C and 93%. `O=C(Nc1nc(-c2ccco2)c(C(=O)C2CCOCC2)s1)c1ccc(Cl)nc1` [Compound 502, 2-Chloro-N-[4-(2-furyl)-5-(tetrahydropyran-4-ylcarbonyl)thiazol-2-yl]pyridine-5-carboxamide] returned a melting point of 233 to 235 °C. In addition, in data set [2], the inhibition at 0.1 µM was determined as 90%. Regarding `Cc1ccc(C(=O)Nc2nc(-c3ccco3)c(C(=O)C3CCOCC3)s2)cn1` [Compound 504, N-[4-(2-Furyl)-5-(tetrahydropyran-4-ylcarbonyl)thiazol-2-yl]-2-methylpyridine-5-carboxamide], the inhibition at 0.1 µM in data set [2] stood at 100%. In turn, `O=C(Nc1nc(-c2ccco2)c(C(=O)C2CCOCC2)s1)c1ccco1` [Compound 511, N-[4-(2-Furyl)-5-(tetrahydropyran-4-ylcarbonyl)thiazol-2-yl]furan-2-carboxamide] registered a melting point of 196 to 198 °C. Also, the inhibition at 0.1 µM in data set [2] is 88%. In the same order, the values of `N#Cc1ccc(C(=O)Nc2nc(-c3ccco3)c(C(=O)C3CCOCC3)s2)o1` [Compound 515, 5-Cyano-N-[4-(2-furyl)-5-(tetrahydropyran-4-ylcarbonyl)thiazol-2-yl]furan-2-carboxamide] are 222 to 223 °C and 95%. Take `O=C(CN1CCOCC1)Nc1nc(-c2ccco2)c(C(=O)C2CCOCC2)s1` [Compound 558, N-[4-(2-Furyl)-5-(tetrahydropyran-4-ylcarbonyl)thiazol-2-yl]-2-morpholinoacetamide]: the inhibition at 0.1 µM in data set [2] amounted to 92%.
